Laboratory results published in patent US20230061835A1, “11-OXO CUCURBITANES AND THEIR USE AS FLAVOR MODIFIERS” (Firmenich SA, priority 2020, published 2023).

Legend:
[1] = Sensory testing by trained panel: umami taste; format: in vivo, human; conditions: panel of 20 trained panelists; test compound at 40 ppm; score on scale −5 (strong masking) to 5 (strong enhancing), 0 = reference water solution with 0.25% NaCl and 0.05% MSG
Protocol: (§1) Each of Compound 101, Compound 102, Compound 103, Compound 104, and Compound 105 was tested for taste properties, particularly umami and saltiness. A panel of twenty (20) trained panelists evaluated the samples of each test compound at 40 ppm for umami taste properties and saltiness taste properties, and scored the solutions on a scale ranging from −5 to 5 (with −5 denoting a strong masking effect, and 5 denoting a strong enhancing effect, and 0 representing the intensity of a reference water solution containing 0.25% sodium chloride (NaCl) and 0.05% monosodium glutamate (MSG), respectively).

[2] = Sensory testing by trained panel: saltiness taste; format: in vivo, human; conditions: panel of 20 trained panelists; test compound at 40 ppm; score on scale −5 (strong masking) to 5 (strong enhancing), 0 = reference water solution with 0.25% NaCl and 0.05% MSG
Protocol: as §1

| Compound | Umami [1] | Saltiness [2] |
| --- | --- | --- |
| C[C@H](CC[C@@H](O[C@@H]1O[C@H](CO[C@@H]2O[C@H](CO)[C@@H](O)[C@H](O)[C@H]2O)[C@@H](O)[C@H](O)[C@H]1O[C@@H]1O[C@H](CO)[C@@H](O)[C@H](O)[C@H]1O)C(C)(C)O)[C@H]1CC[C@@]2(C)[C@@H]3CC=C4[C@@H](CC[C@H](O[C@@H]5O[C@H](CO[C@@H]6O[C@H](CO)[C@@H](O)[C@H](O)[C@H]6O)[C@@H](O)[C@H](O)[C@H]5O)C4(C)C)[C@]3(C)C(=O)C[C@]12C [Compound 101] | 0.88 | 0.19 |
| C[C@H](CC[C@@H](O[C@@H]1O[C@H](CO[C@@H]2O[C@H](CO)[C@@H](O)[C@H](O)[C@H]2O)[C@@H](O)[C@H](O)[C@H]1O[C@@H]1O[C@H](CO)[C@@H](O)[C@H](O)[C@H]1O)C(C)(C)O)[C@H]1CC[C@@]2(C)[C@@H]3CC=C4[C@@H](CC[C@H](O[C@@H]5O[C@H](CO[C@@H]6O[C@H](CO)[C@@H](O)[C@H](O)[C@H]6O)[C@@H](O)[C@H](O)[C@H]5O[C@@H]5O[C@H](CO)[C@@H](O)[C@H](O)[C@H]5O)C4(C)C)[C@]3(C)C(=O)C[C@]12C [Compound 102] | 0.47 | 0.87 |
| C[C@H](CC[C@@H](O[C@@H]1O[C@H](CO)[C@@H](O)[C@H](O)[C@H]1O[C@@H]1O[C@H](CO)[C@@H](O)[C@H](O)[C@H]1O)C(C)(C)O)[C@H]1CC[C@@]2(C)[C@@H]3CC=C4[C@@H](CC[C@H](O[C@@H]5O[C@H](CO[C@@H]6O[C@H](CO)[C@@H](O)[C@H](O)[C@H]6O)[C@@H](O)[C@H](O)[C@H]5O)C4(C)C)[C@]3(C)C(=O)C[C@]12C [Compound 103] | 0.69 | −0.02 |
| C[C@H](CC[C@@H](O[C@@H]1O[C@H](CO)[C@@H](O)[C@H](O)[C@H]1O[C@@H]1O[C@H](CO)[C@@H](O)[C@H](O)[C@H]1O)C(C)(C)O)[C@H]1CC[C@@]2(C)[C@@H]3CC=C4[C@@H](CC[C@H](O[C@@H]5O[C@H](CO)[C@@H](O)[C@H](O)[C@H]5O)C4(C)C)[C@]3(C)C(=O)C[C@]12C [Compound 104] | 0.42 | −0.08 |
| C[C@H](CC[C@@H](O[C@@H]1O[C@H](CO)[C@@H](O)[C@H](O)[C@H]1O)C(C)(C)O)[C@H]1CC[C@@]2(C)[C@@H]3CC=C4[C@@H](CC[C@H](O[C@@H]5O[C@H](CO)[C@@H](O)[C@H](O)[C@H]5O)C4(C)C)[C@]3(C)C(=O)C[C@]12C [Compound 105] | 0.10 | 0.20 |
